This experiment has as its target SHP2 (Homo sapiens (Human), UniProt Q06124). The experiment is described as follows: SHP2 allosteric inhibition assay (DiFMUP substrate, bisphos-IRS1 peptide activation). It is filed as biochemical. Conditions: 0.33 nM SHP2, 0.5 μM bisphos-IRS1 peptide, 100 uM DiFMUP, room temperature. On the procedure:
At the basal state, SHP2 is auto-inhibited and access of substrates to the catalytic site is blocked by the […] interactions between the SH2 domains and the PTP domain. When bis-tyrosyl-phosphorylated peptides bind to SH2 domain of SHP2, the PTP domain becomes available for substrate recognition and reaction catalysis and SHP2 is allosterically activated. SHP2 catalytic activity can be measured using a fluorogenic artificial substrate DiFMUP.
The phosphatase reactions were carried out at room temperature in 384-well black polystyrene plates (Greiner Bio-One, Cat #784076) using assay buffers containing 60 mM HEPES, pH 7.2, 75 mM NaCl, 75 mM KCl, 1 mM EDTA, 0.05% P-20, and 5 mM DTT.
0.33 nM of SHP2 was co-incubated with of 0.5 μM of bisphos-IRS 1 peptide (sequence: H2N-LN(pY)IDLDLV(dPEG8)LST(pY)ASINFQK-amide) and various concentrations of compounds for 30-60 min at room temperature. Then the reaction was initiated by addition of the surrogate substrate DiFMUP (Invitrogen, Cat #D6567, 100 uM final).
The real-time conversion of DiFMUP to DiFMU (6,8-difluoro-7-hydroxyl-4-methyl-coumarin) was measured every 5 min for 30 min using a microplate reader (CLARIOstar, BMG Labtech) with excitation and emission wavelengths of 340 nm and 450 nm, respectively. Initial reaction rates were determined by linear fitting of the data and the inhibitor dose response curves were analyzed using normalized IC50 regression curve fitting with control-based normalization.

Molecules are shown by their SMILES. pIC50: −log10 of the molar value.

Sequence of SHP2 (Q06124 whole entry, the tested form may be a part): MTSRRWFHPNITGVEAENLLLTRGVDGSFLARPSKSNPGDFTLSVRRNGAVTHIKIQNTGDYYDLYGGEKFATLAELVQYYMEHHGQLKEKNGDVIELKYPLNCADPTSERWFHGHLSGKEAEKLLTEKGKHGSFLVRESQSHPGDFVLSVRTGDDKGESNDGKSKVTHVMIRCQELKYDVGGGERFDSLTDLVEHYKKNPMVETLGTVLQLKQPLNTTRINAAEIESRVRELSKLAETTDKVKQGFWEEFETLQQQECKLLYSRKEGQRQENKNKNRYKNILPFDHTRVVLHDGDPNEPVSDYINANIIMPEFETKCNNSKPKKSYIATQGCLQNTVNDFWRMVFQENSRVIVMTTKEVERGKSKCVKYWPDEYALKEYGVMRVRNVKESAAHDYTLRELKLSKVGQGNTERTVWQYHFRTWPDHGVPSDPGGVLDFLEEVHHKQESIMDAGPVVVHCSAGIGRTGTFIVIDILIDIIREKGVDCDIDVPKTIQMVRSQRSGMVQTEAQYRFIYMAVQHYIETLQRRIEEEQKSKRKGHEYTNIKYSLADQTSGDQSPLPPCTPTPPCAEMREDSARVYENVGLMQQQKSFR

`C[C@@H]1OCC2(CCN(c3ncc(Sc4ccnc5c4OC[C@@H]4C[C@H](F)CN54)nc3CO)CC2)[C@@H]1N` [Compound 3, (3-((3S,4S)-4-amino-3-methyl-2-oxa-8-azaspiro[4.5]decan-8-yl)-6-(((6aS,8S)-8-fluoro-6a,7,8,9-tetrahydro-6H-pyrido[3,2-b]pyrrolo[1,2-d][1,4]oxazin-4-yl)thio)pyrazin-2-yl)methanol] gave a pIC50 of 7.89.
For `C[C@@H]1OCC2(CCN(c3ncc(Sc4ccnc5c4OC[C@@H]4C[C@H](O[C@H]6CCOC6)CN54)nc3CO)CC2)[C@@H]1N` [Compound 11, (3-((3S,4S)-4-amino-3-methyl-2-oxa-8-azaspiro[4.5]decan-8-yl)-6-(((6aS,8S)-8-(((S)-tetrahydrofuran-3-yl)oxy)-6a,7,8,9-tetrahydro-6H-pyrido[3,2-b]pyrrolo[1,2-d][1,4]oxazin-4-yl)thio)pyrazin-2-yl)methanol], the pIC50 was 7.85.
Same read-out and setting: the figure for `CO[C@H]1C[C@H]2COc3c(Sc4cnc(N5CCC6(CC5)CO[C@@H](C)[C@H]6N)c(CO)n4)ccnc3N2C1` [Compound 5, (3-((3S,4S)-4-amino-3-methyl-2-oxa-8-azaspiro[4.5]decan-8-yl)-6-(((6aS,8S)-8-methoxy-6a,7,8,9-tetrahydro-6H-pyrido[3,2-b]pyrrolo[1,2-d][1,4]oxazin-4-yl)thio)pyrazin-2-yl)methanol] is 8.10; for `C[C@@H]1OCC2(CCN(c3ncc(Sc4ccnc5c4OC[C@@H]4C[C@H](COCC6CC6)CN54)nc3CO)CC2)[C@@H]1N` [Compound 33, (3-((3S,4S)-4-amino-3-methyl-2-oxa-8-azaspiro[4.5]decan-8-yl)-6-(((6aS,8S)-8-((cyclopropylmethoxy)methyl)-6a,7,8,9-tetrahydro-6H-pyrido[3,2-b]pyrrolo[1,2-d][1,4]oxazin-4-yl)thio)pyrazin-2-yl)methanol] it is 8.64; for `COCCOC[C@H]1C[C@H]2COc3c(Sc4cnc(N5CCC6(CC5)CO[C@@H](C)[C@H]6N)c(CO)n4)ccnc3N2C1` [Compound 32, (3-((3S,4S)-4-amino-3-methyl-2-oxa-8-azaspiro[4.5]decan-8-yl)-6-(((6aS,8S)-8-((2-methoxyethoxy)methyl)-6a,7,8,9-tetrahydro-6H-pyrido[3,2-b]pyrrolo[1,2-d][1,4]oxazin-4-yl)thio)pyrazin-2-yl)methanol] it is 8.40.
Consider `C[C@@H]1OCC2(CCN(c3ncc(Sc4ccnc5c4OC[C@@H]4COCCN54)nc3CO)CC2)[C@@H]1N` [Compound 27, (3-((3S,4S)-4-amino-3-methyl-2-oxa-8-azaspiro[4.5]decan-8-yl)-6-(((S)-6a,7,9,10-tetrahydro-6H-[1,4]oxazino[4,3-d]pyrido[3,2-b][1,4]oxazin-4-yl)thio)pyrazin-2-yl)methanol], for which the “Shp2 IC50(nM)” value is “one of 26 and 27 is 10 and the other is 8”.
Take `C[C@@H]1OCC2(CCN(c3ncc(Sc4ccnc5c4OC[C@@H]4C[C@H](CO)CN54)nc3CO)CC2)[C@@H]1N` [Compound 41, (3-((3S,4S)-4-amino-3-methyl-2-oxa-8-azaspiro[4.5]decan-8-yl)-6-(((6aS,8S)-8-(hydroxymethyl)-6a,7,8,9-tetrahydro-6H-pyrido[3,2-b]pyrrolo[1,2-d][1,4]oxazin-4-yl)thio)pyrazin-2-yl)methanol]: the pIC50 is 8.30.
Same read-out and setting: the figure for `C[C@@H]1OCC2(CCN(c3ncc(Sc4ccnc5c4OC[C@@H]4CCCN54)nc3CO)CC2)[C@@H]1N` [Compound 1, (3-((3S,4S)-4-amino-3-methyl-2-oxa-8-azaspiro[4.5]decan-8-yl)-6-(((S)-6a,7,8,9-tetrahydro-6H-pyrido[3,2-b]pyrrolo[1,2-d][1,4]oxazin-4-yl)thio)pyrazin-2-yl)methanol] is 8.52.
On the same count and under the same terms, the value for `CO[C@@H]1C[C@H]2COc3c(Sc4cnc(N5CCC6(CC5)CO[C@@H](C)[C@H]6N)c(CO)n4)ccnc3N2C1` [Compound 6, (3-((3S,4S)-4-amino-3-methyl-2-oxa-8-azaspiro[4.5]decan-8-yl)-6-(((6aS,8R)-8-methoxy-6a,7,8,9-tetrahydro-6H-pyrido[3,2-b]pyrrolo[1,2-d][1,4]oxazin-4-yl)thio)pyrazin-2-yl)methanol] was 8.22.

(Values after US10894797B2, “Fused tricyclic ring derivatives as SRC homology-2 phosphatase inhibitors” (Nikang Therapuetics, Inc., priority 2018, dated 2021).)
